Some test systems named below: HOP-62 NSCLC; BT-549 breast; SR leukemia; HCT-15 colon; A549 NSCLC; OVCAR-3 ovarian; UACC-62 melanoma; RPMI-8226 leukemia; LOX IMVI melanoma; CAKI-1 renal.
What all share (experiment): NCI tumour cell line growth inhibition, 48 h

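96-well plates; 48 h exposure; 5 concentrations. Endpoints by linear interpolation between flanking doses. Not reached: highest tested concentration assigned. At the GI50, growth is halved. At the TGI there is no net growth.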 Bounds are passed on as bounds.

With `O=C1C(Cl)=C(Oc2ccc([N+](=O)[O-])cc2)C(=O)c2c(O)ccc(O)c21`, the TGI in the test on HOP-62 NSCLC is > 100 µM; with BT-549 breast, > 100 µM; in the test with SR leukemia it was 16.1 µM; in the test on HCT-15 colon, > 67.6 µM; in the test with A549 NSCLC, > 100 µM; in the test on OVCAR-3 ovarian it was > 100 µM. Further, the TGI in the test with UACC-62 melanoma is > 100 µM; with RPMI-8226 leukemia it was > 60.1 µM.

Regarding `S=c1[nH]c(=S)c2sc(=S)n(-c3ccccc3)c2[nH]1`, the TGI in the test on HOP-62 NSCLC, with LOX IMVI melanoma, in the test with SR leukemia, in the test with HCT-15 colon, with A549 NSCLC and in the test on CAKI-1 renal was > 100 µM in each case. Moreover, the TGI with OVCAR-3 ovarian, in the test on UACC-62 melanoma and in the test on RPMI-8226 leukemia was > 100 µM each time.

`c1nc2cscc2c2cscc12`: the TGI with HOP-62 NSCLC, in the test on LOX IMVI melanoma, in the test on SR leukemia, with HCT-15 colon, in the test with A549 NSCLC and with CAKI-1 renal was > 100 µM throughout. The TGI in the test with OVCAR-3 ovarian, with UACC-62 melanoma and with RPMI-8226 leukemia was > 100 µM in each case.

Turning to `N#CCc1ccc(C(C#N)/C(CCCC(=O)Nc2cccc([N+](=O)[O-])c2)=N\NC(=O)NN)cc1` (configuration not stated), the TGI with HOP-62 NSCLC, in the test on SR leukemia, with HCT-15 colon, in the test with A549 NSCLC, in the test with CAKI-1 renal and in the test with OVCAR-3 ovarian was > 100 µM in each case. The TGI with UACC-62 melanoma and in the test with RPMI-8226 leukemia was > 100 µM throughout.

Turning to `NCCCN(CCCN)CCCNCc1c2ccccc2c(CNCCCN(CCCN)CCCN)c2ccccc12`, the TGI was 32.9 µM in the test on HOP-62 NSCLC; 42 µM in the test on LOX IMVI melanoma; > 100 µM with SR leukemia; 28.6 µM in the test with HCT-15 colon; > 100 µM in the test with A549 NSCLC; 32.7 µM with CAKI-1 renal. Besides, the TGI with OVCAR-3 ovarian amounted to 38.6 µM; with UACC-62 melanoma, 21.5 µM; in the test with RPMI-8226 leukemia, 19 µM.

With `O=C(O)c1c2c(c(C(=O)O)c3ccccc13)-c1ccccc1-2`, the TGI was > 100 µM with HOP-62 NSCLC; > 100 µM in the test on LOX IMVI melanoma; > 100 µM in the test with SR leukemia; > 100 µM in the test on A549 NSCLC; 84 µM in the test with OVCAR-3 ovarian; 65.9 µM with UACC-62 melanoma. Besides, the TGI in the test on RPMI-8226 leukemia was > 100 µM.

Regarding `CC(=O)OCSc1ncnc2c1ncn2CN1CCOCC1`, the TGI in the test with HOP-62 NSCLC was > 100 µM; in the test on LOX IMVI melanoma it was 76.6 µM; in the test with SR leukemia it was > 100 µM; in the test on HCT-15 colon, > 100 µM; in the test with A549 NSCLC, > 100 µM; in the test on CAKI-1 renal, > 100 µM. Moreover, the TGI with OVCAR-3 ovarian, in the test with UACC-62 melanoma and with RPMI-8226 leukemia was > 100 µM each time.

With `CC(C)=CC(=O)Oc1ccc([N+](=O)[O-])cc1`, the TGI with HOP-62 NSCLC was > 100 µM; in the test with SR leukemia, > 100 µM; in the test with HCT-15 colon, > 100 µM; in the test on A549 NSCLC, > 100 µM; with CAKI-1 renal it was 53.8 µM; in the test on OVCAR-3 ovarian it was > 100 µM. In addition, the TGI with UACC-62 melanoma and with RPMI-8226 leukemia was > 100 µM in each case.

Take `C1CNCCNCCNCCN1`: the TGI in the test on HOP-62 NSCLC, with LOX IMVI melanoma, in the test on SR leukemia, in the test with A549 NSCLC, with OVCAR-3 ovarian and in the test with UACC-62 melanoma was > 100 µM each time. In addition, the TGI in the test on RPMI-8226 leukemia is > 100 µM.

In the case of `COc1ccc(C2S/C(=C\c3cc(OC)c(OC)c(OC)c3)C(=O)N2NC(=O)Cc2ccccc2)cc1` (configuration not stated), the TGI in the test on HOP-62 NSCLC, in the test with LOX IMVI melanoma, in the test with SR leukemia, with HCT-15 colon, in the test with A549 NSCLC and with CAKI-1 renal was > 100 µM throughout. Besides, the TGI in the test with UACC-62 melanoma and in the test with RPMI-8226 leukemia was > 100 µM each time.

`Clc1ccc(-n2nnc(C3=NCCCN3)c2-c2ccccc2)cc1`: the TGI with HOP-62 NSCLC, in the test on LOX IMVI melanoma, in the test with SR leukemia, in the test with HCT-15 colon, in the test with A549 NSCLC and in the test with CAKI-1 renal was > 100 µM in each case. Besides, the TGI in the test on OVCAR-3 ovarian, with UACC-62 melanoma and in the test on RPMI-8226 leukemia was > 100 µM in each case.

For the molecule `COc1cc2c(c(OC)c1OC)-c1ccc(SC)c(=O)cc1[C@@H](NC(=O)c1ccc(OC(C)=O)cc1)CC2`, the GI50 is 0.0126 µM with HOP-62 NSCLC and 0.00773 µM in the test on SR leukemia. In addition, the TGI in the test with HOP-62 NSCLC was 22.2 µM; in the test on LOX IMVI melanoma, 0.0539 µM; in the test on SR leukemia, 23.9 µM; in the test with A549 NSCLC, > 100 µM; in the test with CAKI-1 renal, > 100 µM; with OVCAR-3 ovarian, 0.034 µM. In addition, the TGI with UACC-62 melanoma was determined as 26.9 µM.

`O=C1CCCCCCCC/C=C/CCC(c2ccco2)O1` (configuration not stated): the GI50 in the test with HOP-62 NSCLC is 41.2 µM; with LOX IMVI melanoma, 35.3 µM; in the test with BT-549 breast it was 37.1 µM; in the test with HCT-15 colon it was > 100 µM; with A549 NSCLC, > 100 µM; in the test on CAKI-1 renal, > 100 µM. In addition, the GI50 with OVCAR-3 ovarian is 39.4 µM; in the test on UACC-62 melanoma, 26.2 µM; in the test on RPMI-8226 leukemia it was 13.6 µM. Also, the TGI with HOP-62 NSCLC is > 100 µM; in the test on LOX IMVI melanoma it was 87.3 µM; in the test with BT-549 breast, > 100 µM; with HCT-15 colon, > 100 µM; in the test with A549 NSCLC, > 100 µM; in the test with CAKI-1 renal, > 100 µM. The TGI with OVCAR-3 ovarian is > 100 µM; in the test on UACC-62 melanoma, > 100 µM; in the test on RPMI-8226 leukemia, 37.6 µM.

Take `Cc1cc(O)c(C(=O)CC2(O)C(=O)Nc3c(Cl)cc(Cl)cc32)c(=O)o1` (configuration not stated): the TGI in the test with HOP-62 NSCLC, in the test with SR leukemia, with HCT-15 colon, in the test with A549 NSCLC, in the test on CAKI-1 renal and with OVCAR-3 ovarian was > 100 µM in each case. In addition, the TGI in the test with UACC-62 melanoma and in the test on RPMI-8226 leukemia was > 100 µM in each case.

On to `Cn1nc(-c2ccccc2)c(N=[N+]=[N-])cc1=O`, for which the TGI with HOP-62 NSCLC, with LOX IMVI melanoma, in the test with SR leukemia, with HCT-15 colon, in the test with A549 NSCLC and in the test with CAKI-1 renal was > 100 µM throughout. In addition, the TGI in the test on OVCAR-3 ovarian, in the test on UACC-62 melanoma and in the test on RPMI-8226 leukemia was > 100 µM throughout.

In the case of `COC1/C(=C\C(=O)OC(C)(C)C)c2ccccc2N1C(C)=O` (configuration not stated), the TGI in the test with HOP-62 NSCLC, with SR leukemia, in the test on HCT-15 colon, in the test on A549 NSCLC, in the test on CAKI-1 renal and in the test on OVCAR-3 ovarian was > 100 µM throughout. For the same molecule, the TGI with UACC-62 melanoma and with RPMI-8226 leukemia was > 100 µM each time.

With `[N-]=[N+]=C(C(=O)OCC#CCOC(=O)C(=[N+]=[N-])S(=O)(=O)c1ccccc1)S(=O)(=O)c1ccccc1`, the TGI in the test on HOP-62 NSCLC, with LOX IMVI melanoma, with BT-549 breast, with HCT-15 colon, in the test on A549 NSCLC and in the test on CAKI-1 renal was > 10 µM throughout. The TGI with OVCAR-3 ovarian, with UACC-62 melanoma and in the test with RPMI-8226 leukemia was > 10 µM in each case.

With `O=C(CNC(=O)OCc1ccccc1)Oc1ccccc1`, the TGI in the test on HOP-62 NSCLC, with LOX IMVI melanoma, in the test with SR leukemia, in the test with HCT-15 colon, in the test with A549 NSCLC and in the test with OVCAR-3 ovarian was > 100 µM in each case. In addition, the TGI in the test with UACC-62 melanoma and in the test on RPMI-8226 leukemia was > 100 µM in each case.

As to `O=C(c1cc(F)c(Cl)cc1Cl)N1N=C(c2ccccc2)CC1(O)c1ccccc1` (configuration not stated), the GI50 with HOP-62 NSCLC was 13.7 µM; with LOX IMVI melanoma, 17.1 µM; in the test on BT-549 breast, 17.7 µM; with HCT-15 colon, 13.8 µM; in the test with A549 NSCLC, 27.8 µM; with CAKI-1 renal it was 31.7 µM. Further, the GI50 was 18.9 µM in the test on OVCAR-3 ovarian, 11.1 µM with UACC-62 melanoma and 11.5 µM in the test with RPMI-8226 leukemia. The TGI is 27.6 µM in the test with HOP-62 NSCLC; 30.8 µM in the test on LOX IMVI melanoma; 40.5 µM in the test with BT-549 breast; 28.3 µM in the test with HCT-15 colon; > 100 µM in the test with A549 NSCLC; > 100 µM in the test with CAKI-1 renal. Further, the TGI in the test on OVCAR-3 ovarian was determined as 59.5 µM; in the test on UACC-62 melanoma, 23.9 µM; in the test on RPMI-8226 leukemia it was 35.4 µM.

`COc1ccc(C(=O)C(c2ccc(OC)cc2)C2(O)C(=O)Nc3c(C)cc(Cl)cc32)cc1` (configuration not stated): the TGI was > 100 µM in the test on HOP-62 NSCLC; 48.2 µM in the test with SR leukemia; > 100 µM with HCT-15 colon; > 100 µM with A549 NSCLC; > 100 µM in the test with OVCAR-3 ovarian; 54.2 µM in the test with UACC-62 melanoma. The same molecule had a TGI in the test with RPMI-8226 leukemia of 80.4 µM.

In the case of `CC1(CO)OC1COCc1ccccc1` (configuration not stated), the TGI in the test with HOP-62 NSCLC, with LOX IMVI melanoma, in the test with SR leukemia, with HCT-15 colon, in the test on A549 NSCLC and in the test on OVCAR-3 ovarian was > 100 µM each time. In addition, the TGI in the test with UACC-62 melanoma and with RPMI-8226 leukemia was > 100 µM each time.

With `COC(=O)/C=C(C)/C=C/c1cc(C(C)=O)c(C)o1`, the TGI in the test on HOP-62 NSCLC, with LOX IMVI melanoma, with SR leukemia, in the test on HCT-15 colon, in the test with A549 NSCLC and with CAKI-1 renal was > 100 µM each time. In addition, the TGI in the test on OVCAR-3 ovarian, in the test on UACC-62 melanoma and in the test with RPMI-8226 leukemia was > 100 µM throughout.

For the origin of these results see PubChem BioAssay (NCI).
